Results from ChEMBL document CHEMBL5634148, “Synthesis and evaluation of novel pleuromutilin derivatives targeting the 50S ribosomal subunit for antibacterial ability” (Eur J Med Chem, 2023).
≈ marks a conversion by molar mass, not a printed value.

Tests used:
Staphylococcus aureus [1] = experiment: Antibacterial activity against methicillin-resistant Staphylococcus aureus BNCC 337371 assessed as bacterial growth inhibition incubated for 18 to 24 hrs by NCCLS based assay; assay type: functional; settings: time 18-24 hrs
[2] = test system: Staphylococcus epidermidis; experiment: Antibacterial activity against methicillin-resistant Staphylococcus epidermidis ATCC 51625 assessed as bacterial growth inhibition incubated for 18 to 24 hrs by NCCLS based assay; assay type: functional; settings: time 18-24 hrs
Staphylococcus aureus [3] = experiment: Antibacterial activity against Staphylococcus aureus ATCC 25923 assessed as bacterial growth inhibition incubated for 18 to 24 hrs by NCCLS based assay; assay type: functional; settings: time 18-24 hrs
Streptococcus agalactiae = experiment: Antibacterial activity against Streptococcus agalactiae assessed as bacterial growth inhibition incubated for 18 to 24 hrs by NCCLS based assay; assay type: functional; settings: time 18-24 hrs
Enterococcus faecalis = experiment: Antibacterial activity against Enterococcus faecalis assessed as bacterial growth inhibition incubated for 18 to 24 hrs by NCCLS based assay; assay type: functional; settings: time 18-24 hrs
Pasteurella multocida = experiment: Antibacterial activity against Pasteurella multocida CVCC 1659 assessed as bacterial growth inhibition incubated for 18 to 24 hrs by NCCLS based assay; assay type: functional; settings: time 18-24 hrs
Escherichia coli = experiment: Antibacterial activity against Escherichia coli CICC 10389 assessed as bacterial growth inhibition incubated for 18 to 24 hrs by NCCLS based assay; assay type: functional; settings: time 18-24 hrs
Staphylococcus aureus [4] = experiment: Bactericidal activity against methicillin-resistant Staphylococcus aureus ATCC 29213 incubated for 24 hrs by time kill assay; assay type: functional, organism-based
Staphylococcus aureus [5] = experiment: Bactericidal activity against Staphylococcus aureus incubated for 24 hrs by time kill assay; assay type: functional, organism-based
[6] = Toxicity in neutropenic Balb/c mouse model infected with methicillin-resistant Staphylococcus aureus assessed as animal survival at 40 mg/kg, iv measured for 7 days; assay type: organism-based; settings: in vivo, 168 h, time 7 day
Staphylococcus aureus [7] = experiment: Antibacterial activity against methicillin-resistant Staphylococcus aureus infected in neutropenic Balb/c mouse model assessed as reduction in bacterial load in lungs at 40 mg/kg, iv measured after 5 days; assay type: functional; settings: time 5 day
Staphylococcus aureus [8] = experiment: Antibacterial activity against methicillin-resistant Staphylococcus aureus infected in neutropenic Balb/c mouse model assessed as reduction in bacterial load in lungs at 15 mg/kg, iv measured after 5 days; assay type: functional; settings: time 5 day

Row | SMILES | MIC (Staphylococcus aureus [1]) [µg/mL] | MIC [2] [µg/mL] | MIC (Staphylococcus aureus [3]) [µg/mL] | MIC (Streptococcus agalactiae) [µg/mL] | MIC (Enterococcus faecalis) [µg/mL] | MIC (Pasteurella multocida) [µg/mL] | MIC (Escherichia coli) [µg/mL] | Activity (Staphylococcus aureus [4]) | Activity (Staphylococcus aureus [5]) | Activity [6] [%] | Activity (Staphylococcus aureus [7]) [log10CFU/ml] | Activity (Staphylococcus aureus [8]) [log10CFU/ml]
1 | C=C[C@]1(C)C[C@@H](OC(=O)CSc2ncnc(OC3CCCC3)n2)[C@]2(C)[C@H](C)CC[C@]3(CCC(=O)[C@H]32)[C@@H](C)[C@@H]1O | 16 (≈ 28.7 µM) | 16 (≈ 28.7 µM) | 4 (≈ 7.17 µM) | 8 (≈ 14.3 µM) | ≥ 64 | ≥ 64 | ≥ 64 |  |  |  |  | 
2 | C=C[C@]1(C)C[C@@H](OC(=O)CSc2ncnc(NCC)n2)[C@]2(C)[C@H](C)CC[C@]3(CCC(=O)[C@H]32)[C@@H](C)[C@@H]1O | 0.125 (≈ 0.242 µM) | 0.125 (≈ 0.242 µM) | 0.125 (≈ 0.242 µM) | 0.013 (≈ 0.0252 µM) | 16 (≈ 31 µM) | ≥ 64 | ≥ 64 |  |  |  |  | 
3 | C=C[C@]1(C)C[C@@H](OC(=O)CSc2ncnc(NCCN3CCOCC3)n2)[C@]2(C)[C@H](C)CC[C@]3(CCC(=O)[C@H]32)[C@@H](C)[C@@H]1O | 0.125 (≈ 0.208 µM) | 0.25 (≈ 0.415 µM) | 0.063 (≈ 0.105 µM) | 0.125 (≈ 0.208 µM) | 32 (≈ 53.2 µM) | ≥ 64 | ≥ 64 |  |  |  |  | 
4 | C=C[C@]1(C)C[C@@H](OC(=O)CSc2ncnc(N3CCCCC3)n2)[C@]2(C)[C@H](C)CC[C@]3(CCC(=O)[C@H]32)[C@@H](C)[C@@H]1O | 0.125 (≈ 0.225 µM) | 0.125 (≈ 0.225 µM) | 0.063 (≈ 0.113 µM) | 0.5 (≈ 0.898 µM) | 32 (≈ 57.5 µM) | ≥ 64 | ≥ 64 |  |  |  |  | 
5 | C=C[C@]1(C)C[C@@H](OC(=O)CSc2ncnc(Cl)n2)[C@]2(C)[C@H](C)CC[C@]3(CCC(=O)[C@H]32)[C@@H](C)[C@@H]1O | 8 (≈ 15.7 µM) | 8 (≈ 15.7 µM) | 4 (≈ 7.87 µM) | 2 (≈ 3.94 µM) | 32 (≈ 63 µM) | ≥ 64 | ≥ 64 |  |  |  |  | 
6 | C=C[C@]1(C)C[C@@H](OC(=O)CSc2ncnc(OCC)n2)[C@]2(C)[C@H](C)CC[C@]3(CCC(=O)[C@H]32)[C@@H](C)[C@@H]1O | 0.125 (≈ 0.241 µM) | 0.25 (≈ 0.483 µM) | 0.125 (≈ 0.241 µM) | 0.25 (≈ 0.483 µM) | 32 (≈ 61.8 µM) | ≥ 64 | ≥ 64 |  |  |  |  | 
7 | C=C[C@]1(C)C[C@@H](OC(=O)CSc2ncnc(N3CCN(C)CC3)n2)[C@]2(C)[C@H](C)CC[C@]3(CCC(=O)[C@H]32)[C@@H](C)[C@@H]1O | 0.125 (≈ 0.219 µM) | 0.125 (≈ 0.219 µM) | 0.125 (≈ 0.219 µM) | 4 (≈ 7 µM) | ≥ 64 | ≥ 64 | ≥ 64 |  |  |  |  | 
8 | C=C[C@]1(C)C[C@@H](OC(=O)CSc2ncnc(N3CCOCC3)n2)[C@]2(C)[C@H](C)CC[C@]3(CCC(=O)[C@H]32)[C@@H](C)[C@@H]1O | 0.063 (≈ 0.113 µM) | 0.125 (≈ 0.224 µM) | 0.063 (≈ 0.113 µM) | 0.125 (≈ 0.224 µM) | 32 (≈ 57.3 µM) | ≥ 64 | ≥ 64 | Dose-Dependent Effect | Dose-Dependent Effect |  |  | 
9 | C=C[C@]1(C)C[C@@H](OC(=O)CSc2ncnc(NC)n2)[C@]2(C)[C@H](C)CC[C@]3(CCC(=O)[C@H]32)[C@@H](C)[C@@H]1O | 0.25 (≈ 0.497 µM) | 0.5 (≈ 0.995 µM) | 0.125 (≈ 0.249 µM) | 0.125 (≈ 0.249 µM) | 32 (≈ 63.7 µM) | ≥ 64 | ≥ 64 |  |  |  |  | 
10 | C=C[C@]1(C)C[C@@H](OC(=O)CSc2ncnc(OC)n2)[C@]2(C)[C@H](C)CC[C@]3(CCC(=O)[C@H]32)[C@@H](C)[C@@H]1O | 0.25 (≈ 0.496 µM) | 0.25 (≈ 0.496 µM) | 0.125 (≈ 0.248 µM) | 0.125 (≈ 0.248 µM) | 32 (≈ 63.5 µM) | ≥ 64 | ≥ 64 |  |  |  |  | 
11 | C=C[C@]1(C)C[C@@H](OC(=O)CSc2ncnc(NCCNC)n2)[C@]2(C)[C@H](C)CC[C@]3(CCC(=O)[C@H]32)[C@@H](C)[C@@H]1O | 0.25 (≈ 0.458 µM) | 0.25 (≈ 0.458 µM) | 0.063 (≈ 0.115 µM) | 0.013 (≈ 0.0238 µM) | 32 (≈ 58.6 µM) | ≥ 64 | ≥ 64 |  |  |  |  | 
12 | C=C[C@]1(C)C[C@@H](OC(=O)CSc2ncnc(NCCN3CCCC3)n2)[C@]2(C)[C@H](C)CC[C@]3(CCC(=O)[C@H]32)[C@@H](C)[C@@H]1O | 0.125 (≈ 0.213 µM) | 0.125 (≈ 0.213 µM) | 0.063 (≈ 0.108 µM) | 0.125 (≈ 0.213 µM) | 32 (≈ 54.6 µM) | ≥ 64 | ≥ 64 |  |  |  |  | 
13 | C=C[C@]1(C)C[C@@H](OC(=O)CSc2ncnc(N3CCNCC3)n2)[C@]2(C)[C@H](C)CC[C@]3(CCC(=O)[C@H]32)[C@@H](C)[C@@H]1O | 2 (≈ 3.59 µM) | 2 (≈ 3.59 µM) | 1 (≈ 1.79 µM) | 0.25 (≈ 0.448 µM) | ≥ 64 | ≥ 64 | ≥ 64 |  |  |  |  | 
14 | C=C[C@]1(C)C[C@@H](OC(=O)CSc2ncnc(N)n2)[C@]2(C)[C@H](C)CC[C@]3(CCC(=O)[C@H]32)[C@@H](C)[C@@H]1O | 0.125 (≈ 0.256 µM) | 0.25 (≈ 0.512 µM) | 0.125 (≈ 0.256 µM) | 0.125 (≈ 0.256 µM) | 16 (≈ 32.7 µM) | ≥ 64 | ≥ 64 |  |  |  |  | 
15 | C=C[C@]1(C)C[C@@H](OC(=O)CSc2ncnc(NCCNCC)n2)[C@]2(C)[C@H](C)CC[C@]3(CCC(=O)[C@H]32)[C@@H](C)[C@@H]1O | 0.125 (≈ 0.223 µM) | 0.25 (≈ 0.447 µM) | 0.063 (≈ 0.113 µM) | 0.25 (≈ 0.447 µM) | 32 (≈ 57.2 µM) | ≥ 64 | ≥ 64 |  |  |  |  | 
16 | C=C[C@]1(C)C[C@@H](OC(=O)CSCCN(CC)CC)[C@]2(C)[C@H](C)CC[C@]3(CCC(=O)[C@H]32)[C@@H](C)[C@@H]1O [TIAMULIN] | 0.5 (≈ 1.01 µM) | 0.5 (≈ 1.01 µM) | 0.25 (≈ 0.506 µM) | 0.125 (≈ 0.253 µM) | 16 (≈ 32.4 µM) | ≥ 64 | ≥ 64 |  |  | 50 | ~2 | 1.24
17 | C=C[C@]1(C)C[C@@H](OC(=O)CSc2ncnc(OCCC)n2)[C@]2(C)[C@H](C)CC[C@]3(CCC(=O)[C@H]32)[C@@H](C)[C@@H]1O | 16 (≈ 30.1 µM) | 16 (≈ 30.1 µM) | 16 (≈ 30.1 µM) | 8 (≈ 15 µM) | ≥ 64 | ≥ 64 | ≥ 64 |  |  |  |  | 
18 | C=C[C@]1(C)C[C@@H](OC(=O)CSc2ncnc(N(CC)CC)n2)[C@]2(C)[C@H](C)CC[C@]3(CCC(=O)[C@H]32)[C@@H](C)[C@@H]1O | 0.25 (≈ 0.459 µM) | 0.125 (≈ 0.229 µM) | 0.125 (≈ 0.229 µM) | 0.25 (≈ 0.459 µM) | ≥ 64 | ≥ 64 | ≥ 64 |  |  |  |  | 
19 | C=C[C@]1(C)C[C@@H](OC(=O)CSc2ncnc(OCCCC)n2)[C@]2(C)[C@H](C)CC[C@]3(CCC(=O)[C@H]32)[C@@H](C)[C@@H]1O | 0.5 (≈ 0.916 µM) | 0.25 (≈ 0.458 µM) | 0.125 (≈ 0.229 µM) | 4 (≈ 7.33 µM) | ≥ 64 | ≥ 64 | ≥ 64 |  |  |  |  | 
20 | C=C[C@]1(C)C[C@@H](OC(=O)CSc2ncnc(NCCN)n2)[C@]2(C)[C@H](C)CC[C@]3(CCC(=O)[C@H]32)[C@@H](C)[C@@H]1O | 8 (≈ 15 µM) | 8 (≈ 15 µM) | 2 (≈ 3.76 µM) | 2 (≈ 3.76 µM) | ≥ 64 | ≥ 64 | ≥ 64 |  |  |  |  | 
21 | C=C[C@]1(C)C[C@@H](OC(=O)CSc2ncnc(N3CCCC3)n2)[C@]2(C)[C@H](C)CC[C@]3(CCC(=O)[C@H]32)[C@@H](C)[C@@H]1O | 0.125 (≈ 0.23 µM) | 0.25 (≈ 0.461 µM) | 0.125 (≈ 0.23 µM) | 0.25 (≈ 0.461 µM) | 32 (≈ 59 µM) | ≥ 64 | ≥ 64 |  |  |  |  | 
